Measurements from paper PMC6268294, “Synthesis of Chalcones with Anticancer Activities” (Molecules, 2012).
Values after ≈ are worked out from the molar mass of the structure shown. Read-outs that look alike come from different tables or passages of the source.

Columns and labels:
[1] = tested on: human lung adenocarcinoma cell line A549; assay: MTT cell viability assay, A549; type: cell-based; conditions: 24 h treatment
Experimental: (§1) A549, PC3, MCF-7, HT-29, WRL68 and MCF-7 cells were obtained from the ATTC (Rockville, MD, USA) and grown in RPMI-1640 medium, 10% fetal bovine serum (FBS) and 1% pen-strep, in humidified conditions at 5% CO2 and 37 °C. The different cell lines mentioned above were used to determine the inhibitory effects of compounds on cell growth using the MTT assay. This colorimetric assay is based on the conversion of the yellow tetrazolium bromide (MTT) to a purple formazan derivative by mitochondrial succinate dehydrogenase in viable cells. Cells were seeded in 96-well plate and incubated for 24 h at 37 °C with 5% CO2 saturation. After incubation, the cells were treated with different concentration of compounds and incubated for another 24 h. After 24 h of drug treatment, 20 µL of MTT solution at 5 mg/mL was added and incubated for 4 h. Dimethyl sulfoxide (DMSO) in volume of 100 µL is added into each well to dissolve the purple formazan formed. The colorimetric assay is measured and recorded at absorbance of 570 nm.

[2] = tested on: human prostate cancer cell line PC3; assay: MTT cell viability assay, PC3; type: cell-based; conditions: 24 h treatment
Experimental: as §1

[3] = tested on: human breast adenocarcinoma cell line MCF-7; assay: MTT cell viability assay, MCF-7; type: cell-based; conditions: MCF7, 24 h treatment
Experimental: as §1

[4] = tested on: human adenocarcinoma cell line HT-29 (colorectal cancer); assay: MTT cell viability assay, HT-29; type: cell-based; conditions: 24 h treatment
Experimental: as §1

[5] = tested on: human normal liver cell line WRL-68; assay: MTT cell viability assay, WRL68; type: cell-based; conditions: 24 h treatment
Experimental: as §1

[6] = tested on: MCF-7 (breast), A549 (lung), PC3 (prostate), HT-29 (colorectal) and WRL68 (liver); assay: MTT assay, summary over all five cell lines; type: cell-based, human; conditions: for IC50: Homo sapiens
Experimental: as §1

MCF-7 cells = assay: Multiparametric high content screening (HCS) cytotoxicity/apoptosis assay; type: cell-based, human; conditions: MCF-7; compounds 2-6 µg/mL, tamoxifen 0.04 µg/mL; vs control
Experimental: Cells were treated with compound 1 (1A- 3 µg/mL; 1B- 6 µg/mL), 23 (23A- 3 µg/mL; 23B- 6 µg/mL), 25 (25A- 2 µg/mL; 25B- 4 µg/mL) and 5 (5A- 3 µg/mL; 5B- 6 µg/mL).
The toxic effects of Cpd 1, 5, 23 and 25 at different doses on MCF-7 cells were assayed using the high content screening (HCS) KineticScan Reader (Cellomics Inc, Pittsburgh, PA, USA) with the Multiparameter Cytotoxicity Kit 3. The kit contains four fluorescent dyes, i.e., blue fluorescent Hoechst 33342, membrane permeability, mitochondrial membrane potential, and cytochrome c dyes. They respectively detect changes in nuclear morphology (nuclear condensation), membrane permeability, mitochondrial membrane potential and expression of cytochrome c. The multiparametric apoptosis kit quantifies three fundamental parameters related to the process of apoptosis, i.e., nuclear condensation detected by the blue fluorescent nuclear dye, Hoechst 33342, cell permeability detected by permeability dye, mitochondrial damage detected by mitochondrial membrane potential dye and cytochrome c release by DyLight 649 Conjugates. Following treatment with different concentrations of compounds 1, 23, 25 and 5 as mentioned before, the fixation and staining for imaging analysis of the MCF-7 cells were performed according to the manufacturer’s instructions. […] Plates were analyzed using a Thermo Scientific ArrayScanHVTI HCS Reader (Cellomics Inc, Pittsburgh, PA, USA). This is a computerized automated fluorescence imaging microscope that automatically identifies stained cells and measures the intensity and distribution of fluorescence in individual cells. Images for each fluoroprobe were acquired at different channels using suitable filters with 20x objective at fixed exposure time. The Cell Health Profiling BioApplication software was used for image acquisitions and analysis. For each well, at least 25 fields, corresponding to at least 500 cells were automatically acquired and analyzed. All experiments were performed in triplicates. Cell average intensity (Mean) under the modified object mask within selected range in each channel was used as assay indicator, and reported as average fluorescence intensity.

[7] = all cell lines except for the A549 cell line, MTT, read-out: IC50 in all cell lines except A549
[8] = all five cell lines, MTT, read-out: IC50 in all cell lines

IC50 [1] | IC50 [2] | IC50 [3] | IC50 [4] | IC50 [6, 7] | IC50 [6, 8] | melting point | SMILES | IC50 [5] | cytotoxic effect in words [6] | cytotoxic effect in words ([6]; all cell lines, MTT) | cytochrome c release (MCF-7 cells) | mitochondrial membrane potential (MCF-7 cells) | total nuclear intensity (Hoechst 33342 nuclear chromatin staining) (MCF-7 cells)
22.6 ± 1.1 µg/mL (≈ 101 µM) | 11.1 ± 0.4 µg/mL (≈ 49.4 µM) | 9.35 ± 1.2 µg/mL (≈ 41.7 µM) | 19.8 ± 2.01 µg/mL (≈ 88.5 µM) | < 20 µg/mL |  |  | O=C(/C=C/c1ccccc1O)c1ccccc1 [Compound 21, 3-(2-Hydroxyphenyl)-1-phenylpropenone] | 17 ± 1.7 µg/mL (≈ 75.9 µM) |  |  |  |  | 
14.2 ± 1 µg/mL (≈ 55.7 µM) | 5.58 ± 0.2 µg/mL (≈ 22 µM) | 7.15 ± 0.4 µg/mL (≈ 28.1 µM) | 11.4 ± 1 µg/mL (≈ 44.9 µM) |  | < 20 µg/mL |  | COc1ccc(C(=O)/C=C/c2ccccc2O)cc1 [Compound 24, 3-(2-Hydroxyphenyl)-1-(4-methoxyphenyl)-propenone] | 8.72 ± 1 µg/mL (≈ 34.3 µM) | high cytotoxicity |  |  |  | 
24.9 ± 1.9 µg/mL (≈ 105 µM) | 8.73 ± 0.21 µg/mL (≈ 36.9 µM) | 10.2 ± 1.89 µg/mL (≈ 43 µM) | 16.3 ± 1.9 µg/mL (≈ 69 µM) | < 20 µg/mL |  |  | Cc1ccc(C(=O)/C=C/c2cccc(C)c2)cc1 [Compound 11, 3-m-Tolyl-1-p-tolylpropenone] | 13.9 ± 1.3 µg/mL (≈ 59 µM) |  |  |  |  | 
> 100 µg/mL | > 100 µg/mL | > 100 µg/mL | > 100 µg/mL |  |  |  | COc1ccc(/C=C/C(=O)c2ccc(O)cc2)cc1 [Compound 14, 1-(4-Hydroxyphenyl)-3-(4-methoxyphenyl)-propenone] | > 100 µg/mL | low cytotoxic effects |  |  |  | 
77 ± 2.1 µg/mL (≈ 323 µM) | 21.1 ± 1.24 µg/mL (≈ 88.7 µM) | 19.1 ± 1 µg/mL (≈ 80.4 µM) | 37.3 ± 2.81 µg/mL (≈ 156 µM) |  |  |  | COc1ccc(C(=O)/C=C/c2ccccc2)cc1 [Compound 4, 1-(4-Methoxyphenyl)-3-phenylpropenone] | 57.3 ± 3.8 µg/mL (≈ 240 µM) |  |  |  |  | 
> 100 µg/mL | > 100 µg/mL | > 100 µg/mL | > 100 µg/mL |  |  |  | COc1ccc(C(=O)/C=C/c2ccccc2Cl)cc1 [Compound 8, 3-(2-Chlorophenyl)-1-(4-methoxy-phenyl)propenone] | > 100 µg/mL | low cytotoxic effects |  |  |  | 
19.7 ± 1.22 µg/mL (≈ 82.6 µM) | 13.7 ± 1.1 µg/mL (≈ 57.5 µM) | 8.34 ± 0.472 µg/mL (≈ 35 µM) | 12.1 ± 3 µg/mL (≈ 50.8 µM) |  | < 20 µg/mL |  | Cc1cccc(/C=C/C(=O)c2ccc(O)cc2)c1 [Compound 10, 1-(4-Hydroxyphenyl)-3-m-tolylpropenone] | 13.4 ± 2.09 µg/mL (≈ 56.4 µM) | high cytotoxicity |  |  |  | 
58.5 ± 3.2 µg/mL (≈ 221 µM) | > 100 µg/mL | 57.3 ± 3.1 µg/mL (≈ 216 µM) | 69.5 ± 4.23 µg/mL (≈ 262 µM) |  |  | 124 to 125 °C | Cc1ccc(C(=O)/C=C/c2ccc(N(C)C)cc2)cc1 [Compound 19, 3-(4-Dimethylaminophenyl)-1-p-tolyl-propenone] | 39.8 ± 3.9 µg/mL (≈ 150 µM) |  |  |  |  | 
 |  |  |  |  |  |  | CC/C(=C(\c1ccccc1)c1ccc(OCCN(C)C)cc1)c1ccccc1 [tamoxifen, reference compound] |  |  |  | found to increase | reduction in mitochondrial membrane potential dye retention | increase in nuclear chromatin staining

SMILES | IC50 [1] | IC50 [2] | IC50 [3] | IC50 [4] | IC50 [6, 7] | IC50 [6, 8] | melting point | IC50 [5] | cytotoxic effect in words [6] | cytotoxic effect in words ([6]; all cell lines, MTT) | cytochrome c release (MCF-7 cells) | mitochondrial membrane potential (MCF-7 cells) | total nuclear intensity (Hoechst 33342 nuclear chromatin staining) (MCF-7 cells)
CN(C)c1ccc(/C=C/C(=O)c2ccc(O)cc2)cc1 [Compound 18, 3-(4-Dimethylaminophenyl)-1-(4-hydroxy-phenyl)-propenone] | > 100 µg/mL | > 100 µg/mL | > 100 µg/mL | > 100 µg/mL |  |  |  | > 100 µg/mL |  | low cytotoxic effects |  |  | 
COc1ccc(/C=C/C(=O)c2ccccc2)cc1 [Compound 13, 3-(4-Methoxyphenyl)-1-phenylpropenone] | 32.6 ± 2.5 µg/mL (≈ 137 µM) | 12.1 ± 0.99 µg/mL (≈ 50.7 µM) | 11.62 ± 0.101 µg/mL (≈ 48.8 µM) | 22.8 ± 2.3 µg/mL (≈ 95.6 µM) |  |  |  | 21.5 ± 1.7 µg/mL (≈ 90.1 µM) |  |  |  |  | 
